Data taken from patent US20240174714A1, “TREATMENT OF SKIN DISORDERS” (priority 2021, published 2024).
Like-named read-outs stand apart in the source and are kept apart here. Each block holds one compound with its values, some of them ahead of it. Square brackets hold non-standard residues; d marks the D form. Peptide text beside a SMILES is read from it. * marks the point of attachment. Adamantane1carbonyl = O=C(C12CC3CC(CC(C3)C1)C2)*; NH((S)CH(Me)CH2NMe2) = C[C@@H](CN(C)C)N*; NH(1-CH2NMe2-cBu) = CN(C)CC1(N*)CCC1; Benzoyl(4-OMe) = COc1ccc(C(=O)*)cc1; Gly(octyl) = CCCCCCCC[C@H](N)C(=O)O; Oxazole4CO(2-Me) = Cc1nc(C(=O)*)co1; X4 = COc1ccc2cc(C(=O)*)c(=O)oc2c1; Benzoyl(4-F) = O=C(c1ccc(F)cc1)*; hCha = N[C@@H](CCC1CCCCC1)C(=O)O; Aoc(2) = CCCCCC[C@H](N)C(=O)O; X6 = O=C(c1ccnc2cc(Cl)ccc12)*; X7 = O=C(c1ccc2[nH]ccc2c1)*; X3 = C[C@@H](CN1CCOCC1)N*; X5 = O=C(C1CCc2ccccc2C1)*; Aib = CC(C)(N)C(=O)O; βAla = NCCC(=O)O

Legend:
[1] = system: axenic Leishmania donovani MHOM-ET-67/L82 amastigotes; assay: In vitro antiprotozoal assay, axenic amastigotes; format: cell-based
Description: (§1) The testing of the inventive compounds against Leishmania donovani (strain MHOM/ET/67/L82) was performed in 96 well plates at concentrations in serial dilutions. Tests were done in triplicate.

[2] = system: intracellular Leishmania donovani MHOM-ET-67/L82 amastigotes; assay: In vitro antiprotozoal assay, intracellular amastigotes; format: cell-based; details: intracellular amastigotes; read-out: L.don.InMac IC50
Description: as §1

[3] = Cytotoxicity assay (Alamar Blue) on L6-cells; format: cell-based, rat
Description: Tests were done in triplicate.
The plates were incubated for additional 2 h.

[4] = axenic amastigotes, read-out: L.don.ax. IC50

SMILES: CCCCCCCC[C@H](NC(=O)[C@@H]1CCCN1C(=O)c1ccc(OC)cc1)C(=O)N[C@@H](CC(C)C)C(=O)NC(C)(C)C(=O)N[C@@H](CC(C)C)C(=O)N[C@@H](CC(C)C)C(=O)NC(C)(C)C(=O)NC(C)(C)C(=O)NCCC(=O)N[C@@H](C)CN(C)C [Compound 5912, (2S)—N-[(1S)-1-[(1-{[(1S)-1-{[(1S)-1-{[1-({1-[(2-{[(2S)-1-(dimethylamino)propan-2-yl]carbamoyl}ethyl)carbamoyl]-1-methylethyl}carbamoyl)-1-methylethyl]carbamoyl}-3-methylbutyl]carbamoyl}-3-methylbutyl]carbamoyl}-1-methylethyl)carbamoyl]-3-methylbutyl]-2-{[(2S)-1-(4-methoxybenzoyl)pyrrolidin-2-yl]formamido}decanamide] ({Benzoyl(4-OMe)}-P[Gly(octyl)]L[Aib]LL[Aib][Aib][βAla]-{NH((S)CH(Me)CH2NMe2)})
IC50 [1, 4]: 5.1 nM
IC50 [2]: 12.8 nM
IC50 at 68 h ([3]; rat): 254 nM

SMILES: CCCCCCCC[C@H](NC(=O)[C@@H]1CCCN1C(=O)C1CCc2ccccc2C1)C(=O)N[C@@H](CC(C)C)C(=O)NC(C)(C)C(=O)N[C@@H](CC(C)C)C(=O)N[C@@H](CC(C)C)C(=O)NC(C)(C)C(=O)NC(C)(C)C(=O)NCCC(=O)N[C@@H](C)CN(C)C (stereo partly drawn) [Compound 5910, (2S)—N-[(1S)-1-[(1-{[(1S)-1-{[(1S)-1-{[1-({1-[(2-{[(2S)-1-(dimethylamino)propan-2-yl]carbamoyl}ethyl)carbamoyl]-1-methylethyl}carbamoyl)-1-methylethyl]carbamoyl}-3-methylbutyl]carbamoyl}-3-methylbutyl]carbamoyl}-1-methylethyl)carbamoyl]-3-methylbutyl]-2-{[(2S)-1-(1,2,3,4-tetrahydronaphthalene-2-carbonyl)pyrrolidin-2-yl]formamido}decanamide] (X5-P[Gly(octyl)]L[Aib]LL[Aib][Aib][βAla]-{NH((S)CH(Me)CH2NMe2)})
IC50 [1, 4]: 2.1 nM
IC50 [2]: 6.7 nM
IC50 at 68 h ([3]; rat): 230 nM

IC50 [1, 4]: 20.6 nM
IC50 [2]: 383 nM
SMILES: CCCCCC[C@H](NC(=O)[C@@H]1CCCN1C(=O)c1coc(C)n1)C(=O)N[C@@H](CC(C)C)C(=O)NC(C)(C)C(=O)N[C@@H](CC(C)C)C(=O)N[C@@H](CC(C)C)C(=O)NC(C)(C)C(=O)NC(C)(C)C(=O)NCCC(=O)NC1(CN(C)C)CCC1 [Compound 6894, (2S)—N-[(1S)-1-[(1-{[(1S)-1-{[(1S)-1-({1-[(1-{[2-({1-[(dimethylamino)methyl]cyclobutyl}carbamoyl)ethyl]carbamoyl}-1-methylethyl)carbamoyl]-1-methylethyl}carbamoyl)-3-methylbutyl]carbamoyl}-3-methylbutyl]carbamoyl}-1-methylethyl)carbamoyl]-3-methylbutyl]-2-{[(2S)-1-(2-methyl-1,3-oxazole-4-carbonyl)pyrrolidin-2-yl]formamido}octanamide] ({Oxazole4CO(2-Me)}-P[Aoc(2)]L[Aib]LL[Aib][Aib][βAla]-{NH(1-CH2NMe2-cBu)})
IC50 at 68 h ([3]; rat): 4740 nM

SMILES: COc1ccc(C[C@H](NC(=O)[C@@H]2CCCN2C(=O)c2coc(C)n2)C(=O)N[C@@H](CC(C)C)C(=O)NC(C)(C)C(=O)N[C@@H](CC(C)C)C(=O)N[C@@H](CC(C)C)C(=O)NC(C)(C)C(=O)NC(C)(C)C(=O)NCCC(=O)NC2(CN(C)C)CCC2)cc1 [Compound 6896, (2S)-N-(1-{[(1S)-1-{[(1S)-1-({1-[(1-{[2-({1-[(dimethylamino)methyl]cyclobutyl}carbamoyl)ethyl]carbamoyl}-1-methylethyl)carbamoyl]-1-methylethyl}carbamoyl)-3-methylbutyl]carbamoyl}-3-methylbutyl]carbamoyl}-1-methylethyl)-2-[(2S)-3-(4-methoxyphenyl)-2-{[(2S)-1-(2-methyl-1,3-oxazole-4-carbonyl)pyrrolidin-2-yl]formamido}propanamido]-4-methylpentanamide] ({Oxazole4CO(2-Me)}-PY(Me)L[Aib]LL[Aib][Aib][βAla]-{NH(1-CH2NMe2-cBu)})
IC50 [1]: 236 nM
IC50 [2]: 1640 nM
IC50 at 68 h ([3]; rat myoblast L6 cells, read-out: Cytotox L6 IC50): 8490 nM

SMILES: CCCCCCCC[C@H](NC(=O)[C@@H]1CCCN1C(=O)c1cc2ccc(OC)cc2oc1=O)C(=O)N[C@@H](CC(C)C)C(=O)NC(C)(C)C(=O)N[C@@H](CC(C)C)C(=O)N[C@@H](CC(C)C)C(=O)NC(C)(C)C(=O)NC(C)(C)C(=O)NCCC(=O)N[C@@H](C)CN(C)C [Compound 5769, (2S)-N-[(1S)-1-[(1-{[(1S)-1-{[(1S)-1-{[1-({1-[(2-{[(2S)-1-(dimethylamino)propan-2-yl]carbamoyl}ethyl)carbamoyl]-1-methylethyl}carbamoyl)-1-methylethyl]carbamoyl}-3-methylbutyl]carbamoyl}-3-methylbutyl]carbamoyl}-1-methylethyl)carbamoyl]-3-methylbutyl]-2-{[(2S)-1-(7-methoxy-2-oxo-2H-chromene-3-carbonyl)pyrrolidin-2-yl]formamido}decanamide] (X4-P[Gly(octyl)]L[Aib]LL[Aib][Aib][βAla]-{NH((S)CH(Me)CH2NMe2)})
IC50 [1, 4]: 8.1 nM
IC50 [2]: 216 nM
IC50 at 68 h ([3]; rat): 423 nM

SMILES: CCCCCCCC[C@H](NC(=O)[C@@H]1CCCN1C(=O)C12CC3CC(CC(C3)C1)C2)C(=O)N[C@@H](CC(C)C)C(=O)NC(C)(C)C(=O)N[C@@H](CC(C)C)C(=O)N[C@@H](CC(C)C)C(=O)NC(C)(C)C(=O)NC(C)(C)C(=O)NCCC(=O)N[C@@H](C)CN(C)C [Compound 5770, (2S)-2-{[(2S)-1-(adamantane-1-carbonyl)pyrrolidin-2-yl]formamido}-N-[(1S)-1-[(1-{[(1S)-1-{[(1S)-1-{[1-({1-[(2-{[(2S)-1-(dimethylamino)propan-2-yl]carbamoyl}ethyl)carbamoyl]-1-methylethyl}carbamoyl)-1-methylethyl]carbamoyl}-3-methylbutyl]carbamoyl}-3-methylbutyl]carbamoyl}-1-methylethyl)carbamoyl]-3-methylbutyl]decanamide] (Adamantane1carbonyl-P[Gly(octyl)]L[Aib]LL[Aib][Aib][βAla]-{NH((S)CH(Me)CH2NMe2)})
IC50 [1, 4]: 1 nM
IC50 [2]: 338 nM
IC50 at 68 h ([3]; rat): 185 nM

SMILES: CCCCCCCC[C@H](NC(=O)[C@@H]1CCCN1C(=O)c1ccc2[nH]ccc2c1)C(=O)N[C@@H](CC(C)C)C(=O)NC(C)(C)C(=O)N[C@@H](CC(C)C)C(=O)N[C@@H](CC(C)C)C(=O)NC(C)(C)C(=O)NC(C)(C)C(=O)NCCC(=O)N[C@@H](C)CN(C)C [Compound 5911, (2S)—N-[(1S)-1-[(1-{[(1S)-1-{[(1S)-1-{[1-({1-[(2-{[(2S)-1-(dimethylamino)propan-2-yl]carbamoyl}ethyl)carbamoyl]-1-methylethyl}carbamoyl)-1-methylethyl]carbamoyl}-3-methylbutyl]carbamoyl}-3-methylbutyl]carbamoyl}-1-methylethyl)carbamoyl]-3-methylbutyl]-2-{[(2S)-1-(1H-indole-5-carbonyl)pyrrolidin-2-yl]formamido}decanamide] (X7-P[Gly(octyl)]L[Aib]LL[Aib][Aib][βAla]-{NH((S)CH(Me)CH2NMe2)})
IC50 [1, 4]: 14.4 nM
IC50 [2]: 34.8 nM
IC50 at 68 h ([3]; rat): 457 nM

SMILES: Cc1nc(C(=O)N2CCC[C@H]2C(=O)N[C@@H](CCC2CCCCC2)C(=O)N[C@@H](CC(C)C)C(=O)NC(C)(C)C(=O)N[C@@H](CC(C)C)C(=O)N[C@@H](CC(C)C)C(=O)NC(C)(C)C(=O)NC(C)(C)C(=O)NCCC(=O)N[C@@H](C)CN2CCOCC2)co1 [Compound 6026, (2S)-2-[(2S)-2-{2-[(2S)-2-[(2S)-4-cyclohexyl-2-{[(2S)-1-(2-methyl-1,3-oxazole-4-carbonyl)pyrrolidin-2-yl]formamido}butanamido]-4-methylpentanamido]-2-methylpropanamido}-4-methylpentanamido]-4-methyl-N-[1-methyl-1-({1-methyl-1-[(2-{[(2S)-1-(morpholin-4-yl)propan-2-yl]carbamoyl}ethyl)carbamoyl]ethyl}carbamoyl)ethyl]pentanamide] ({Oxazole4CO(2-Me)}-P[hCha]L[Aib]LL[Aib][Aib][βAla]-X3)
IC50 [1, 4]: 4.2 nM
IC50 [2]: 50.7 nM
IC50 at 68 h ([3]; rat): 1580 nM

SMILES: CC(C)C[C@H](NC(=O)[C@H](CCC1CCCCC1)NC(=O)[C@@H]1CCCN1C(=O)c1ccc(F)cc1)C(=O)NC(C)(C)C(=O)N[C@@H](CC(C)C)C(=O)N[C@@H](CC(C)C)C(=O)NC(C)(C)C(=O)NC(C)(C)C(=O)NCCC(=O)N[C@@H](C)CN1CCOCC1 [Compound 6028, (2S)-2-[(2S)-2-{2-[(2S)-2-[(2S)-4-cyclohexyl-2-{[(2S)-1-(4-fluorobenzoyl)pyrrolidin-2-yl]formamido}butanamido]-4-methylpentanamido]-2-methylpropanamido}-4-methylpentanamido]-4-methyl-N-[1-methyl-1-({1-methyl-1-[(2-{[(2S)-1-(morpholin-4-yl)propan-2-yl]carbamoyl}ethyl)carbamoyl]ethyl}carbamoyl)ethyl]pentanamide] ({Benzoyl(4-F)}-P[hCha]L[Aib]LL[Aib][Aib][βAla]-X3)
IC50 [1, 4]: 3.3 nM
IC50 [2]: 418 nM
IC50 at 68 h ([3]; rat): 1590 nM

SMILES: CCCCCCCC[C@H](NC(=O)[C@@H]1CCCN1C(=O)c1ccnc2cc(Cl)ccc12)C(=O)N[C@@H](CC(C)C)C(=O)NC(C)(C)C(=O)N[C@@H](CC(C)C)C(=O)N[C@@H](CC(C)C)C(=O)NC(C)(C)C(=O)NC(C)(C)C(=O)NCCC(=O)N[C@@H](C)CN(C)C [Compound 5768, (2S)-2-{[(2S)-1-(7-chloroquinoline-4-carbonyl)pyrrolidin-2-yl]formamido}-N-[(1S)-1-[(1-{[(1S)-1-{[(1S)-1-{[1-({1-[(2-{[(2S)-1-(dimethylamino)propan-2-yl]carbamoyl}ethyl)carbamoyl]-1-methylethyl}carbamoyl)-1-methylethyl]carbamoyl}-3-methylbutyl]carbamoyl}-3-methylbutyl]carbamoyl}-1-methylethyl)carbamoyl]-3-methylbutyl]decanamide] (X6-P[Gly(octyl)]L[Aib]LL[Aib][Aib][βAla]-{NH((S)CH(Me)CH2NMe2)})
IC50 [1, 4]: 33.5 nM
IC50 [2]: 257 nM
IC50 at 68 h ([3]; rat): 627 nM
